We go through 9 compounds from US7300925B2, “2-ethyl and 2-ethylidene-19-nor-vitamin D compounds” (Wisconsin Alumni Research Foundation, priority 2000, dated 2007).

Assay [1] concerns intestinal calcium transport. In words: support of intestinal calcium transport in vitamin D-deficient rats on a low-calcium diet. It counts as in vivo. Particulars: for Ca transport S/M (mean ± SEM): vitamin D-deficient rats, low-calcium diet, 24 hours after the last dose.
The test system of assay [2] is bone calcium mobilization. In words: bone calcium mobilization (serum Ca) in vitamin D-deficient rats on a low-calcium diet. It counts as in vivo. Particulars: for Serum Ca (mean ± SEM): vitamin D-deficient rats, low-calcium diet, 24 hours after the last dose.
Assay [3] has as its system human promyelocyte HL-60 cells. In words: induction of differentiation of HL-60 cells into monocytes. It counts as cell-based. Particulars: compared with 1α,25-(OH)2D3; FIG. 6a, 6b. The procedure:
FIG. 6a is a graph illustrating the percent HL-60 cell differentiation as a function of the concentration of the 2-ethylidene-19-nor-vitamins as compared to 1α,25-dihydroxyvitamin D3; and
FIG. 6b is a graph illustrating the percent HL-60 cell differentiation as a function of the concentration of the 2α and 2β-ethyl-19-nor-vitamins as compared to 1α,25-dihydroxyvitamin D3.
The synthesized vitamins were tested for their ability to bind the porcine intestinal vitamin D receptor. […] In the next assay, the cellular activity of the synthesized compounds was established by studying their ability to induce differentiation of human promyelocyte HL-60 cells into monocytes.

Where [4] appears, read: 130 pmol daily i.p. for seven days.
The mark [5] stands for this setting: 260 pmol daily i.p. for seven days.
[6] abbreviates: 65 pmol daily i.p. for seven days.

Molecules are shown by their SMILES. Where “and” joins values, the source holds several entries; their conditions need not be identical. Equal entries are not always repeated.

Consider `C=C1/C(=C\C=C2/CCC[C@]3(C)[C@@H]([C@H](C)CCCC(C)(C)O)CC[C@@H]23)C[C@@H](O)C[C@@H]1O` [Compound 1, 1α,25-dihydroxyvitamin D3, reference compound], for which the “Ca transport S/M (mean ± SEM)” value in assay [1] (setting [4]) was 4.9 ± 0.7 and 5.5 ± 0.5; in assay [1] (setting [5]), 5.9 ± 0.4 and 6.0 ± 0.9 and 6.5 ± 0.9. Further, the “Serum Ca (mean ± SEM)” value in assay [2] (setting [4]) is 5.2 ± 0.2 and 5.1 ± 0.3; in assay [2] (setting [5]), 5.8 ± 0.3 and 6.4 ± 0.4 and 5.8 ± 0.1.
`CC=C1C(O)CC(=CC=C2CCCC3(C)C2CCC3C(C)CCCC(C)(C)O)CC1O` (stereo not drawn) [Compound 4a, 1α,25-dihydroxy-2(E)-ethylidene-19-nor-vitamin D3]: the “Ca transport S/M (mean ± SEM)” value is given as 5.0 ± 0.4 in assay [1] (setting [6]) and 6.8 ± 0.4 in assay [1] (setting [4]). Also, the “Serum Ca (mean ± SEM)” value in assay [2] (setting [6]) is listed as 4.5 ± 0.1; in assay [2] (setting [4]), 5.2 ± 0.2.
In the case of `CC=C1[C@H](O)CC(=C/C=C2\CCC[C@@]3(C)C2CCC3[C@@H](C)CCCC(C)(C)O)C[C@H]1O` (stereo partly drawn) [Compound 4b, 2-ethylidene-19-nor-(20S)-1α,25-(OH)2D3 (E-isomer)], in assay [3], the “ability to induce differentiation of HL-60 cells into monocytes (in words)” value was “more potent than 1α,25-(OH)2D3”. Besides, the “Ca transport S/M (mean ± SEM)” value stood at 9.0 ± 0.3 in assay [1] (setting [6]) and 5.8 ± 0.8 in assay [1] (setting [4]). Moreover, the entries for the “Serum Ca (mean ± SEM)” value in assay [2] (setting [6]) and in assay [2] (setting [4]) were 8.2 ± 0.3 and 12.1 ± 0.6, respectively. In addition, the “calcemic activity in vivo in rats (in words)” value in assay [2] (overall judgement of Table 1 (intestine and bone)) is “especially potent”.
In the case of `CC=C1C(O)CC(=CC=C2CCCC3(C)C2CCC3C(C)CCCC(C)(C)O)CC1O` (stereo not drawn) [Compound 5a, 1α,25-dihydroxy-2(Z)-ethylidene-19-nor-vitamin D3], the “Ca transport S/M (mean ± SEM)” value in assay [1] (setting [6]) worked out at 4.4 ± 0.4; in assay [1] (setting [4]) it was 5.7 ± 0.9. Moreover, the “Serum Ca (mean ± SEM)” value is 4.4 ± 0.2 in assay [2] (setting [6]) and 4.2 ± 0.0 in assay [2] (setting [4]).
In the case of `CC=C1[C@H](O)CC(=C/C=C2\CCC[C@@]3(C)C2CCC3[C@@H](C)CCCC(C)(C)O)C[C@H]1O` (stereo partly drawn) [Compound 5b, 2-ethylidene-19-nor-(20S)-1α,25-(OH)2D3 (Z-isomer)], the “Ca transport S/M (mean ± SEM)” value is given as 4.3 ± 0.7 in assay [1] (setting [6]) and 3.8 ± 0.3 in assay [1] (setting [4]). The “Serum Ca (mean ± SEM)” value in assay [2] (setting [6]) is reported as 4.0 ± 0.3; in assay [2] (setting [4]), 4.0 ± 0.1.
`CCC1C(O)CC(=CC=C2CCCC3(C)C2CCC3C(C)CCCC(C)(C)O)CC1O` (stereo not drawn) [Compound 6a, 2α-ethyl-19-nor-1α,25-(OH)2D3]: the “Ca transport S/M (mean ± SEM)” value in assay [1] (setting [5]) is recorded as 4.0 ± 0.4. Besides, the “Serum Ca (mean ± SEM)” value in assay [2] (setting [5]) came to 5.1 ± 0.1.
With `CCC1C(O)CC(=CC=C2CCCC3(C)C2CCC3C(C)CCCC(C)(C)O)CC1O` [Compound 6b, 2α-ethyl-19-nor-(20S)-1α,25-(OH)2D3], the “Ca transport S/M (mean ± SEM)” value in assay [1] (setting [5]) came to 5.0 ± 0.4. Further, in assay [1] (rats, Table 1), the “intestinal activity (in words)” value was “marked intestinal activity”. In assay [2] (setting [5]), the “Serum Ca (mean ± SEM)” value is reported as 7.0 ± 0.1. Also, the “ability to mobilize calcium from bone (in words)” value in assay [2] (rats, Table 1) was “strong calcium mobilization response”.
`CCC1C(O)CC(=CC=C2CCCC3(C)C2CCC3C(C)CCCC(C)(C)O)CC1O` (stereo not drawn) [Compound 7a, 2β-ethyl-19-nor-1α,25-(OH)2D3]: the “Ca transport S/M (mean ± SEM)” value in assay [1] (setting [5]) is 3.7 ± 0.3. Further, the “Serum Ca (mean ± SEM)” value in assay [2] (setting [5]) was determined as 5.0 ± 0.1.
Regarding `CCC1C(O)CC(=CC=C2CCCC3(C)C2CCC3C(C)CCCC(C)(C)O)CC1O` [Compound 7b, 2β-ethyl-19-nor-(20S)-1α,25-(OH)2D3], in assay [1] (setting [5]), the “Ca transport S/M (mean ± SEM)” value is listed as 4.1 ± 0.3. Also, the “Serum Ca (mean ± SEM)” value in assay [2] (setting [5]) worked out at 5.6 ± 0.1.
